# Where a SMILES comes first, the peptide text is derived from it. [ ]: non-standard residue; d: D form.
# What was measured:
# [1] = tested on: Normal human dermal fibroblasts (NHDFs); assay: Collagen production test; type: cell-based; settings: 5-day culture
# Experimental: Normal human dermal fibroblasts (NHDFs) were plated in a 48-well plate. As a medium, Medium 106 containing 1% FBS was used. After culturing in an incubator at 37° C. under 5% CO2 for about 3 hours, the peptide or FGFb (Positive Control), which had been diluted with the medium to each concentration, was added, and the culturing was further continued. The medium was replaced with a medium containing the same additive on Day 3, and the culturing was continued for another 2 days.
# The amount of produced collagen was measured by using Semi-Quantitative Collagen Assay Kit.
# After the 5-day culture, the medium was removed by aspiration, and the cells were washed with cold PBS(−). Cold methanol/ethanol was added thereto and the plate was left to stand for 10 minutes at room temperature to fix the cells. The cells were washed twice with cold PBS(−). Then, a staining solution (Dye Solution) was added to each well, and the plate was left to stand at room temperature for 30 minutes. The staining solution was removed, and the cells were washed 4-5 times with deionized water. An extraction solution (Dye Extraction Solution) was added to each well to extract the dye, and the absorbances of the extract at 540 nm and 605 nm were measured.
# The amounts of collagen and noncollagen proteins were calculated according to the following equation. […]
# rat cut-wound model = assay: Effect to heal cut wounds, wound closing tension; type: in vivo; settings: 500 ng, 5 and 50 μg dropwise once a day, measured on Day 6
# Experimental: Next, using rat cut-wound model, the effect of the polypeptides, SR-07 and SR-08, to heal cut wounds in vivo was evaluated. As described in Tetsuaki Yamaura et al. (Oyo Yakuri (Pharmacometrics) 22, 565-579 (1981)), the rat cut-wound model was produced and the wound closing tension was measured.
# That is, a cut wound of 30 to 36 mm was made on the back of Crl:CD (SD) rats (male, 7-week old, obtained from Charles River Laboratories Japan, Inc.) using a safety razor, and sutured at 3 points equally spaced. The day when this surgical treatment was applied was regarded as […] (Day 0). Onto the suture site, 50 μL of each of the peptides which were test substances and were respectively prepared to the concentration of 10, 100 and 1000 μg/mL was added dropwise (the added amounts were 500 ng and 5 and 50 μg, respectively). Additions of 50 μL physiological saline were regarded as negative controls (Saline). Each peptide was added dropwise once a day till the day when the measurement of the wound closing tension was carried out. The sutures were removed on Day 3, and the wound closing tension was measured on Day 6.
# [2] = tested on: rat infected-wound model (wound infected with Staphylococcus aureus); assay: Healing effect in infected wounds; type: in vivo; settings: 50 μg dropwise Days 0-3 with Staphylococcus aureus, followed to Day 10; vs bFGF formulation 3 μg
# Experimental: Referring to Stenberg B D et al. (J Surg Res. 1991 January; 50(1):47-50.) and Hayward P et al. (Am J Surg. 1992 March; 163(3):288-93.), a rat infected-wound model was produced as described below. HWY/slc hairless rats (male, 7-week old, obtained from Japan SLC, Inc.) were used. The day before full-thickness defects were created, the number of leukocytes was measured and cyclophosphamide was administered in tail vein (100 mg/kg). On the next day, the number of leukocytes was counted. Only the individuals in which the number of leukocytes was not more than 5000, were used. A square-shaped full-thickness defects of 1.73×1.73 cm (about 3 cm^2) were created on the back of the rats, and 25 μL of Staphylococcus aureus (about 10^5 CFU/25 μL) and SR-07 or SR-08 peptide as a test substance (2 mg/mL) was added dropwise onto the defect sites (the administered amount was 50 μg). On the other hand, 25 μL of the bFGF formulation (3 μg/25 μL) was added dropwise in the bFGF formulation (a positive control) group, and 25 μL of physiological saline was added dropwise in the negative control groups. […] From the day when the full-thickness defects were created to Day 10, the area where the wounds had still not healed was measured to calculate the ratio of it relative to the area where the wounds were created, and the results were shown in graphs (FIG. 9 (SR-07) and FIG. 10 (SR-08)).
# [3] = tested on: decubitus model, hairless rats; assay: Healing effect on decubituses; type: in vivo, rat; settings: 0.2 μg/uL (4 μg/wound)
# Experimental: In order to confirm the healing effect on a decubitus, one of skin ulcers, a decubitus model was produced using 7-week old male hairless rats (HWY/slc), and the healing effect of the polypeptides of the present invention was examined. A pair of magnets (φ10×5 mm; available from AZBIO KENIS; rare earth magnets; Type: KD-2; Code: 3-118-119; and, Magnetic Flux Density: 350 mT) was contacted to the skin of the back of each rat for 8 hours to induce a decubitus. On the day after inducing the decubitus, the necrotic skin was surgically removed to obtain a decubitus model. After producing the decubitus model, the test substance was administered onto the wound site, and a covering was used to cover over that (Day 0). Only a covering was used in the Control. Thereafter, on every measurement day, the test substance was administered once a day, and the change of the area of the wound was measured by calculating measured values from a digital caliper and digital images. The concentration of the test substances were individually 0.2 μg/uL (4 μg/wound). The area where the burns had still not healed was measured to calculate the ratio of it relative to the area where the burns were created (Day 0).
structure (smiles),measurement,setting,value
CC[C@H](C)[C@H](NC(=O)[C@H](CC(C)C)NC(=O)[C@H](CCCCN)NC(=O)[C@@H](N)CC(C)C)C(=O)N[C@@H](Cc1ccccc1)C(=O)N[C@@H](CC(C)C)C(=O)N[C@@H](Cc1c[nH]cn1)C(=O)N[C@@H](CCCNC(=N)N)C(=O)N[C@@H](CC(C)C)C(=O)N[C@@H](CCCCN)C(=O)N[C@@H](CCCNC(=N)N)C(=O)N[C@@H](CCSC)C(=O)N[C@@H](CCCNC(=N)N)C(=O)N[C@@H](CCCCN)C(=O)N[C@@H](CCCNC(=N)N)C(=O)N[C@@H](CC(C)C)C(=O)N[C@H](CCCCN)C(=O)N[C@@H](CCCNC(=N)N)C(=O)N[C@@H](CCCCN)C(N)=O [SR-08] (H-LKLIFLHRLKRMRKRL[dK]RK-NH2; N-terminus assumed),Collagen production of fibroblasts (FIG. 2),[1],had an effect to induce collagen production of the fibroblasts
same,Wound closing tension (FIGS. 7 and 8),rat cut-wound model,the wound closing tension tended to be increased
same,"Healing effect on infected wounds (unhealed area ratio, FIGS. 9 and 10)",[2],showed a higher healing effect on infected wounds than the bFGF formulation
same,"Healing effect on decubitus (unhealed area ratio, FIGS. 16 and 17)",[3]; once a day,showed a therapeutic effect also in decubituses
same,"Ratio of remaining wound area on Day 12, Mean Value","[3]; decubitus model, Day 12, Control Group 4.516729",0.7902
